Data published in US11578077B2, “Spiro-oxazolones” (Hoffmann-La Roche Inc., priority 2013, dated 2023).

molecular target: human V1a receptor (Homo sapiens (Human), UniProt P37288); assay: human V1a receptor binding studies (3H-Vasopressin, SPA beads); conditions: membranes of HEK293 cells transiently transfected with human V1a receptor, Ki by Cheng-Prusoff
Description: The human V1a receptor was cloned by RT-PCR from total human liver RNA. The coding sequence was subcloned in an expression vector after sequencing to confirm the identity of the amplified sequence. […] Cell membranes were prepared from HEK293 cells transiently transfected with the expression vector and grown in 20 liter fermenters with the following protocol.
50 g of cells are re-suspended in 30 ml freshly prepared ice cold Lysis buffer ([…] HEPES. 1 mM EDTA, 10 mM MgCl2 adjusted to pH=7.4+complete cocktail of protease inhibitor (Roche Diagnostics)). Homogenized with Polytron for 1 min and sonicated on ice for 2×2 minutes at 80% intensity (Vibracell sonicator). The preparation is centrifuged 20 min at 500 g at 4° C., the pellet is discarded and the supernatant centrifuged 1 hour at 43'000 g at 4° C. (19'000 rpm). The pellet is re-suspended in 12.5 ml Lysis buffer+12.5 ml Sucrose 20% and homogenized using a Polytron for 1-2 min. The protein concentration is determined by the Bradford method and aliquots are stored at −80° C. until use. For binding studies 60 mg Yttrium silicate SPA beads (Amersham) are mixed with an aliquot of membrane in binding buffer (50 mM Tris, 120 mM NaCl, 5 mM KCl, 2 mM CaCl2, 10 mM MgCl) for 15 minutes with mixing. 50 μl of bead/membrane mixture is then added to each well of a 96 well plate, followed by […] of 4 nM 3H-Vasopressin (American Radiolabeled Chemicals). For total binding measurement 100 μl of binding buffer are added to the respective wells, for non-specific binding 100 μl of […] cold vasopressin and for compound testing 100 μl of a serial dilution of each compound in 2% DMSO. The plate is incubated 1 h at room temperature, centrifuged 1 min at 1000 g and counted on a Packard Top-Count. Non-specific binding counts are subtracted from each well and data is normalized to the maximum specific binding set at 100%. To calculate an IC 50 the curve is fitted using a non-linear regression model (XLfit) and the Ki is calculated using the Cheng-Prussoff equation.

Sequence of human V1a receptor (P37288 whole entry): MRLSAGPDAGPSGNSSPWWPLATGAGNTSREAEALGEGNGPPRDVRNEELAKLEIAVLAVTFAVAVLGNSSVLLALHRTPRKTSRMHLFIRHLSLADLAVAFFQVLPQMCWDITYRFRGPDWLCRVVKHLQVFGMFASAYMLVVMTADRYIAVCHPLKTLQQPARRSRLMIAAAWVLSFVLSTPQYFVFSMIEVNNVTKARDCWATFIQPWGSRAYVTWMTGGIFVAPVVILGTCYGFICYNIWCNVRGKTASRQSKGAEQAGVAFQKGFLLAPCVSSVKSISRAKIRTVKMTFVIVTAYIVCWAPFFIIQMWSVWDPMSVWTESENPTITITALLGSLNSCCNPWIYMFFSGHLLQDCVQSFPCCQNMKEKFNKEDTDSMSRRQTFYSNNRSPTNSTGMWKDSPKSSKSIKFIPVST

Compound | pKi hV1a
Cc1ccc2c(c1)C[C@]1(C2)OC(N2CCC3(CC2)OC(=O)c2ccccc23)=NC1=O (stereo in doubt) [Example 24, (−)-1′-[5-methyl-4′-oxo-1,3-dihydro-4′H-spiro[indene-2,5′,-[1,3]oxazol]-2′-yl]-3H-spiro[2-benzofuran-1,4′-piperidin]-3-one] | 8.6
C[Si](C)(C)c1ccc2c(c1)CC1(C2)OC(N2CCC3(CC2)OCc2ccccc23)=NC1=O (stereo not drawn) [Example 29, 2′-(1′H,3H-spiro[2-benzofuran-1,4′-piperidin]-1′-yl)-5-(trimethylsilyl)-1,3-dihydro-4′H-spiro[indene-2,5′-[1,3]oxazol]-4′-one] | 6.2
Cc1cc2c(cc1C)CC1(C2)OC(N2CCC3(CC2)OC(=O)c2ccccc23)=NC1=O [Example 26, 1′-(5,6-dimethyl-4′-oxo-1,3-dihydro-4′H-spiro[indene-2,5′-[1,3]oxazol)-2′-yl)-3H-spiro[2-benzofuran-1,4′-piperidin]-3-one] | 6.4
Cc1ccc2c(c1)C(=O)OC21CCN(C2=NC(=O)C3(Cc4ccccc4C3)O2)CC1 [Example 6, 5-methyl-1′-(4′-oxo-1,3-dihydro-4′H-spiro[indene-2,5′-[1,3]oxazol]-2′-yl)-3H-spiro[2-benzofuran-1,4′-piperidin]-3-one] | 8.8
CC1(C)OC2(CCN(C3=NC(=O)C4(Cc5ccccc5C4)O3)CC2)c2ccccc21 [Example 3, 2′-(3,3-dimethyl-1′H,3H-spiro[2-benzofuran-1,4′-piperidin]-1′-yl)-1,3-dihydro-4′H-spiro[indene-2,5′-[1,3]oxazol]-4′-one] | 9.3
Cc1ccc2c(c1)C1(CCN(C3=NC(=O)C4(Cc5ccccc5C4)O3)CC1)OC2=O [Example 7, 6-methyl-1′-(4′-oxo-1,3-dihydro-4′H-spiro[indene-2,5′-[1,3]oxazol]-2′-yl)-3H-spiro[2-benzofuran-1,4′-piperidin]-3-one] | 8.8
COc1ccc2c(c1)C1(CCN(C3=NC(=O)C4(Cc5ccccc5C4)O3)CC1)OC2=O [Example 10, 6-methoxy-1′-(4′-oxo-1,3-dihydro-4′H-spiro[indene-2,5′-[1,3]oxazol]-2′-yl)-3H-spiro[2-benzofuran-1,4′-piperidin]-3-one] | 8.6
O=C1OC2(CCN(C3=NC(=O)C4(Cc5ccccc5C4)O3)CC2)c2c(F)cccc21 [Example 16, 7-fluoro-1′-(4′-oxo-1,3-dihydro-4′H-spiro[indene-2,5′-[1,3]oxazol]-2′-yl)-3H-spiro[2-benzofuran-1,4′-piperidin]-3-one] | 8.7
Cc1ccc2c(c1)CC1(C2)OC(N2CCC3(CC2)OCc2ccccc23)=NC1=O (stereo not drawn) [Example 21, 5-methyl-2′-(1′H,3H-spiro[2-benzofuran-1,4′-piperidin]-1′-yl)-1,3-dihydro-4′H-spiro[indene-2,5′-[1,3]oxazol]-4′-one] | 9.1
O=C1N=C(N2CCC3(CC2)OCc2ccccc23)O[C@@]12CCc1ccccc12 [Example 20, (+)-2′-(1′H,3H-spiro[2-benzofuran-1,4′-piperidin]-1′-yl)-2,3-dihydro-4′H-spiro[indene-1,5′-[1,3]oxazol]-4′-one] | 6.6
COc1ccc2c(c1)CC1(C2)OC(N2CCC3(CC2)OC(=O)c2ccccc23)=NC1=O (stereo not drawn) [Example 27, 1′-(5-methoxy-4′-oxo-1,3-dihydro-4′H-spiro[indene-2,5′-[1,3]oxazol]-2′-yl)-3H-spiro[2-benzofuran-1,4′-piperidin]-3-one] | 7.7
O=C1OC2(CCN(C3=NC(=O)C4(Cc5ccccc5C4)O3)CC2)c2cc(Cl)ccc21 [Example 17, 6-chloro-1′-(4-oxo-1,3-dihydro-4′H-spiro[indene-2,5′-[1,3]oxazol]-2′-yl)-3H-spiro[2-benzofuran-1,4′-piperidin]-3-one] | 8.6

Second part, the molecule after the results:

pKi hV1a | Compound
6.7 | O=C1OC2(CCN(C3=NC(=O)C4(CCCc5ccccc54)O3)CC2)c2ccccc21 (stereo not drawn) [Example 63, 1′-(4′-oxo-3,4-dihydro-2H,4′H-spiro[naphthalene-1,5′-[1,3]oxazol]-2′-yl)-3H-spiro[2-benzofuran-1,4′-piperidin]-3-one]
7.0 | Cc1ccc2c(n1)C(=O)OC21CCN(C2=NC(=O)C3(Cc4ccccc4C3)O2)CC1 [Example 49, 2-methyl-1′-(4′-oxo-1,3-dihydro-4′H-spiro[indene-2,5′-[1,3]oxazol]-2′-yl)-7H-spiro[furo[3,4-b]pyridine-5,4′-piperidin]-7-one]
7.6 | O=C1N=C(N2CCC3(CC2)OCc2ccccc23)OC12Cc1cnc(CF)cc1C2 (stereo not drawn) [Example 59, 3-(fluoromethyl)-2′-(1′H,3H-spiro[2-benzofuran-1,4′-piperidin]-1′-yl)-5,7-dihydro-4′H-spiro[cyclopenta[c]pyridine-6,5′-[1,3]oxazol]-4′-one]
7.4 | Cc1cnc2c(c1)C1(CCN(C3=NC(=O)C4(Cc5ccccc5C4)O3)CC1)OC2=O [Example 53, 3-methyl-1′-(4′-oxo-1,3-dihydro-4′H-spiro[indene-2,5′-[1,3]oxazol]-2′-yl)-7H-spiro[furo[3,4-b]pyridine-5,4′-piperidin]-7-one]
7.7 | Cc1cc2c(cn1)CC1(C2)OC(N2CCC3(CC2)OCc2ccccc23)=NC1=O (stereo not drawn) [Example 58, 3-methyl-2′-(1′H,3H-spiro[2-benzofuran-1,4′-piperidin]-1′-yl)-5,7-dihydro-4′H-spiro[cyclopenta[c]pyridine-6,5′-[1,3]oxazol]-4′-one]
8.5 | CC1(C)OC2(CCN(C3=NC(=O)C4(Cc5ccccc5C4)O3)CC2)c2ccc(O)nc21 [Example 72, 2′-(2-hydroxy-7,7-dimethyl-1′H,7H-spiro[furo[3,4-b]pyridine-5,4′-piperidin]-1′-yl)-1,3-dihydro-4′H-spiro[indene-2,5′-[1,3]oxazol]-4′-one]
8.3 | COc1ccc2c(c1)CC1(C2)OC(N2CCC3(CC2)OC(C)(C)c2ncccc23)=NC1=O (stereo not drawn) [Example 40, 2′-(7,7-dimethyl-1′H,7H-spiro[furo[3,4-b]pyridine-5,4′-piperidin]-1′-yl)-5-methoxy-1,3-dihydro-4′H-spiro[indene-2,5′-[1,3]oxazol]-4′-one]
7.4 | O=C1OC2(CCN(C3=NC(=O)C4(Cc5ccccc5C4)O3)CC2)c2cnc(Cl)cc21 [Example 54, 6-chloro-1′-(4′-oxo-1,3-dihydro-4′H-spiro[indene-2,5′-[1,3]oxazol]-2′-yl)-1H-spiro[furo[3,4-c]pyridine-3,4′-piperidin]-1-one]
7.9 | Cc1ccc2c(n1)COC21CCN(C2=NC(=O)C3(Cc4ccccc4C3)O2)CC1 [Example 48, 2′-(2-methyl-1′H,7H-spiro[furo[3,4-b]pyridine-5,4′-piperidin]-1′-yl)-1,3-dihydro-4′H-spiro[indene-2,5′-[1,3]oxazol]-4′-one]
8.0 | O=C1N=C(N2CCC3(CC2)OCc2ncccc23)OC12Cc1ccccc1C2 [Example 37, 2′-(1′H,7H-spiro[furo[3,4-b]pyridine-5,4′-piperidin]-1′-yl)-1,3-dihydro-4′H-spiro[indene-2,5′-[1,3]oxazol]-4′-one]
9.1 | CC1(C)OC2(CCN(C3=NC(=O)C4(Cc5ccccc5C4)O3)CC2)c2cccnc21 [Example 39, 2′-(7,7-dimethyl-1′H,7H-spiro[furo[3,4-b]pyridine-5,4′-piperidin]-1′-yl)-1,3-dihydro-4′H-spiro[indene-2,5′-[1,3]oxazol]-4′-one]
8.6 | O=C1N=C(N2CCC3(CC2)OCc2cccnc23)OC12Cc1ccccc1C2 [Example 36, 2′-(1′H,5H-spiro[furo[3,4-b]pyridine-7,4′-piperidin]-1′-yl)-1,3-dihydro-4′H-spiro[indene-2,5′-[1,3]oxazol]-4′-one]
8.9 | CC1(C)OC2(CCN(C3=NC(=O)C4(Cc5ccc(O)cc5C4)O3)CC2)c2cccnc21 (stereo not drawn) [Example 41, 2′-(7,7-dimethyl-1′H,7H-spiro[furo[3,4-b]pyridine-5,4′-piperidin]-1′-yl)-5-hydroxy-1,3-dihydro-4′H-spiro[indene-2,5′-[1,3]oxazol]-4′-one]
7.3 | CC1(C)OC2(CCN(C3=NC(=O)C4(Cc5ccccc5C4)O3)CC2)c2ccc[n+]([O-])c21 [Example 70, 2′-(7,7-dimethyl-1-oxido-1′H,7H-spiro[furo[3,4-b)pyridine-5,4′-piperidin]-1′yl)-1,3-dihydro-4′H-spiro[indene-2,5′-[1,3]oxazol]-4′-one]
8.4 | O=C1OC2(CCN(C3=NC(=O)C4(Cc5ccc(O)cc5C4)O3)CC2)c2ccccc21 (stereo not drawn) [Example 28, 1′-(5-hydroxy-4′-oxo-1,3-dihydro-4′H-spiro[indene-2,5′-[1,3]oxazol]-2′-yl)-3H-spiro[2-benzofuran-1,4′-piperidin]-3-one]
